Measurements taken from patent US20050074829A1, “Methods for identifying inhibitors of sterol 14-alpha-demethylase” (priority 2003, published 2005).

How the values were obtained:
[1] = molecular target: T1, OBT-DM (Arabidopsis thaliana, UniProt Q9SAA9); settings: for wavelength of maximum absorbance in difference spectrum / wavelength of minimum absorbance in difference spectrum: 0.25 mg/ml OBT-DM in 50 mM HEPES pH 7.2, 1 μL of 1 mM inhibitor added, spectrum 300-500 nm
T1 sequence (Q9SAA9 35-488): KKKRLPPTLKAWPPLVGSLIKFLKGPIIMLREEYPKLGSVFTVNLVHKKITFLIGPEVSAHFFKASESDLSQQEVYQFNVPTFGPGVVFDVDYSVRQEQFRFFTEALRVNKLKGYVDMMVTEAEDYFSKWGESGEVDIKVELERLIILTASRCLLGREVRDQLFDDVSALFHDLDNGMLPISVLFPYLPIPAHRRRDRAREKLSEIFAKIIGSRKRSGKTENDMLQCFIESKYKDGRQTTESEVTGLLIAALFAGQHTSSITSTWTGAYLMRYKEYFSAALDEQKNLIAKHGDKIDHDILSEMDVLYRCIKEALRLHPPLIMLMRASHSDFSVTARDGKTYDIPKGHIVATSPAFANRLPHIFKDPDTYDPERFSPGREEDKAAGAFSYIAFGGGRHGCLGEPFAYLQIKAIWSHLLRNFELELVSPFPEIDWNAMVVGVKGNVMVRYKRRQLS
Experimental: An OBT-DM solution (0.25 mg/ml) in 50 mM HEPES, pH 7.2, was placed in a micro-quartz cuvette with 1 cm path length. The solution was used to blank a Hewlett Packard 8453 spectrometer. Then 1 μL of a 1 mM solution of type II inhibitor in 50% (v/v) DMSO ethanol was added and the spectrum was acquired between the 300 and 500 nm region.

[2] = molecular target: T2, OBT-DM (Arabidopsis thaliana, UniProt Q9SAA9); assay: Equilibrium inhibitory constant for OBT-DM (no method given); format: binding
T2 sequence (Q9SAA9 1-488): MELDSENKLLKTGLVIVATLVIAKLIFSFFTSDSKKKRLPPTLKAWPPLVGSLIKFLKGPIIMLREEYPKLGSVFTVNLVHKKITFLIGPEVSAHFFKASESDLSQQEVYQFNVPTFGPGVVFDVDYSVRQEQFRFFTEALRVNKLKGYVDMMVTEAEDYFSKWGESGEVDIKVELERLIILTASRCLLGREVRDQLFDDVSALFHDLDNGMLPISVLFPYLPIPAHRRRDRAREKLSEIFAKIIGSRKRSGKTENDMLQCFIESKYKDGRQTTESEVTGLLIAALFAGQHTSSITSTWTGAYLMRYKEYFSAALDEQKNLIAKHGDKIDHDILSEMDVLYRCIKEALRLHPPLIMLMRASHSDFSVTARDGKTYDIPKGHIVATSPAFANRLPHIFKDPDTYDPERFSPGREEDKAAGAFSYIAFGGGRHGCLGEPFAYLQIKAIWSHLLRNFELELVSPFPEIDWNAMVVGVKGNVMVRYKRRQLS

[3] = molecular target: T1, OBT-DM; assay: 384-well assay for identification of inhibitors of OBT-DM, read at 413 nm with 432 nm as reference; format: binding; design: made in house; host or cells: E. coli Rosetta DE3 pLysS; settings: 10 μM compound, 0.4 mg/ml OBT-DM, 20 min room temperature; negative control wells 0.09-0.12
Experimental: The assay was performed using 0.4 mg/ml OBTDM in 50 mM HEPES, pH 7.2, and 0.01% Tween 20 in all wells plus 10 μM Ketoconazole (positive control) in 50 mM HEPES, pH 7.2, and 0.01% Tween 20 in plate rows A-H; 10 μM compounds numbered 1-24 in 50 mM HEPES, pH 7.2, and 0.01% Tween 20 in row I; and 50 mM HEPES, pH 7.2, and 0.01% Tween 20 in rows K-P (negative control).
The assay was set up in a 384-well plate format and initiated by the addition of 40 μl of 20 μM Ketoconazole (ICN Biomedicals, Inc., Irvine, Calif.) in 50 mM HEPES, pH 7.2, 0.01% Tween 20, to rows A-H to a final concentration of 10 μM (positive control) and 40 μl of 50 mM HEPES, pH 7.2, 0.01% Tween 20, to rows K-P (negative control). Test compounds were added to a concentration of 10 μM in row I by manual addition of 40 μl of a 20 μM solution (compounds assigned numbers from 1-24). Then 40 μl of an 0.8 mg/ml solution of OBT-DM protein in 50 mM HEPES, pH 7.2, 0.01% Tween 20 (from Example 2) was added to all wells to a final concentration of 0.4 mg/ml via multidrop.

| SMILES | wavelength of maximum absorbance in difference spectrum [1] [nm] | wavelength of minimum absorbance in difference spectrum [1] [nm] | Ki [2] [µM] | absorbance reading at 413 nm using 432 nm as reference wavelength [3] | magnitude of the type II difference spectrum signal ([1]; comparison among inhibitors studied) |
| --- | --- | --- | --- | --- | --- |
| Clc1ccccc1C(c1ccccc1)(c1ccccc1)n1ccnc1 [Compound 4, Clotrimazole] | 432 | 413 |  |  |  |
| Nc1nc[nH]n1 [Compound 10, 3-amino-1,2,4-triazole] |  |  | > 10 | negative result |  |
| CC(=O)N1CCN(c2ccc(OCC3COC(Cn4ccnc4)(c4ccc(Cl)cc4Cl)O3)cc2)CC1 (stereo not drawn) [Ketoconazole] | 432 | 413 |  |  | maximum magnitude of the signal |
| OC(Cn1cncn1)(Cn1cncn1)c1ccc(F)cc1F [Compound 2, Fluconazole] | 432 | 413 |  |  |  |
